Experimental data published in PubChem BioAssay (NCI).
Where “and” joins values, the source holds several entries; their conditions need not be identical. Equal values may be shown once.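 Briefly, cells in 96-well plates were exposed to five compound concentrations for 48 h, and endpoints were estimated by linear interpolation. GI50 is the concentration that inhibits growth by half. TGI is the concentration that stops growth completely.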

How the values were obtained:
Test in all cases: growth of human tumour cells (NCI), 48 h
HL-60(TB) leukemia = test system: HL-60(TB) leukemia
OVCAR-8 ovarian = test system: OVCAR-8 ovarian
SF-295 CNS = test system: SF-295 CNS
SNB-19 CNS = test system: SNB-19 CNS
UACC-257 melanoma = test system: UACC-257 melanoma
NCI-H522 lung = test system: NCI-H522 lung
TK-10 renal = test system: TK-10 renal
RPMI-8226 leukemia = test system: RPMI-8226 leukemia
CAKI-1 renal = test system: CAKI-1 renal
SW-620 colon = test system: SW-620 colon
HT29 colon = test system: HT29 colon
A549 NSCLC = test system: A549 NSCLC
UACC-62 melanoma = test system: UACC-62 melanoma
SF-268 CNS = test system: SF-268 CNS
MALME-3M melanoma = test system: MALME-3M melanoma
HCT-15 colon = test system: HCT-15 colon
NCI-H226 lung = test system: NCI-H226 lung
SR leukemia = test system: SR leukemia
HCT-116 colon = test system: HCT-116 colon
NCI-H23 lung = test system: NCI-H23 lung
SNB-75 CNS = test system: SNB-75 CNS
SN12C renal = test system: SN12C renal
SK-MEL-28 melanoma = test system: SK-MEL-28 melanoma
T-47D breast = test system: T-47D breast
U251 CNS = test system: U251 CNS
SK-MEL-2 melanoma = test system: SK-MEL-2 melanoma
HOP-62 NSCLC = test system: HOP-62 NSCLC
IGROV1 ovarian = test system: IGROV1 ovarian
LOX IMVI melanoma = test system: LOX IMVI melanoma
SF-539 CNS = test system: SF-539 CNS
OVCAR-4 ovarian = test system: OVCAR-4 ovarian
MCF7 breast = test system: MCF7 breast
UO-31 renal = test system: UO-31 renal
MOLT-4 leukemia = test system: MOLT-4 leukemia
DU-145 prostate = test system: DU-145 prostate
COLO 205 colon = test system: COLO 205 colon
NCI-H460 lung = test system: NCI-H460 lung
CCRF-CEM leukemia = test system: CCRF-CEM leukemia
BT-549 breast = test system: BT-549 breast
HOP-92 NSCLC = test system: HOP-92 NSCLC
ACHN renal = test system: ACHN renal
PC-3 prostate = test system: PC-3 prostate
MDA-MB-231 breast = test system: MDA-MB-231 breast
EKVX NSCLC = test system: EKVX NSCLC
KM12 colon = test system: KM12 colon
NCI/ADR-RES ovarian = test system: NCI/ADR-RES ovarian
A498 renal = test system: A498 renal
MDA-MB-435 = test system: MDA-MB-435
RXF 393 renal = test system: RXF 393 renal
SK-OV-3 ovarian = test system: SK-OV-3 ovarian
HCC-2998 colon = test system: HCC-2998 colon
M14 melanoma = test system: M14 melanoma
OVCAR-5 ovarian = test system: OVCAR-5 ovarian
786-0 renal = test system: 786-0 renal
SK-MEL-5 melanoma = test system: SK-MEL-5 melanoma
OVCAR-3 ovarian = test system: OVCAR-3 ovarian
HS 578T breast = test system: HS 578T breast
K-562 leukemia = test system: K-562 leukemia

`Cc1cc(Nc2ncc(Cl)c(Nc3ccccc3S(=O)(=O)C(C)C)n2)c(OC(C)C)cc1C1CCNCC1` was tested, and the GI50 (HL-60(TB) leukemia) was 253 nM, the TGI (HL-60(TB) leukemia) was 1640 nM and the GI50 (OVCAR-8 ovarian) was 1740 nM and 1410 nM. The TGI (OVCAR-8 ovarian) was 3590 nM and 4230 nM, the GI50 (SF-295 CNS) was 1430 nM and 1630 nM and the TGI (SF-295 CNS) was 2810 nM and 3160 nM. The GI50 (SNB-19 CNS) was 1730 nM, the TGI (SNB-19 CNS) was 3140 nM and the GI50 (UACC-257 melanoma) was 1240 nM. The TGI (UACC-257 melanoma) was 2810 nM, the GI50 (NCI-H522 lung) was 1520 nM and the TGI (NCI-H522 lung) was 3060 nM. The GI50 (TK-10 renal) was 1420 nM and 1330 nM, the TGI (TK-10 renal) was 2760 nM and 2610 nM and the GI50 (RPMI-8226 leukemia) was 753 nM. For the same molecule, the TGI (RPMI-8226 leukemia) was 2850 nM, the GI50 (CAKI-1 renal) was 1870 nM and the TGI (CAKI-1 renal) was 5290 nM. For the same molecule, the GI50 (SW-620 colon) was 776 nM, the TGI (SW-620 colon) was 2610 nM and the GI50 (HT29 colon) was 237 nM and 304 nM. The TGI (HT29 colon) was 1240 nM and 1270 nM, the GI50 (A549 NSCLC) was 1340 nM and the TGI (A549 NSCLC) was 2690 nM. The GI50 (UACC-62 melanoma) was 1490 nM and 1170 nM, the TGI (UACC-62 melanoma) was 2840 nM and 2430 nM and the GI50 (SF-268 CNS) was 1610 nM. For the same molecule, the TGI (SF-268 CNS) was 3380 nM, the GI50 (MALME-3M melanoma) was 857 nM and 265 nM and the TGI (MALME-3M melanoma) was 2250 nM and 1250 nM. For the same molecule, the GI50 (HCT-15 colon) was 1210 nM, the TGI (HCT-15 colon) was 2590 nM and the GI50 (NCI-H226 lung) was 1290 nM and 1560 nM and 1700 nM. The TGI (NCI-H226 lung) was 3100 nM and 3950 nM and 4250 nM, the GI50 (SR leukemia) was 44.4 nM and the TGI (SR leukemia) was 1580 nM. For the same molecule, the GI50 (HCT-116 colon) was 1240 nM, the TGI (HCT-116 colon) was 2620 nM and the GI50 (NCI-H23 lung) was 1510 nM. The TGI (NCI-H23 lung) was 3070 nM, the GI50 (SNB-75 CNS) was 1200 nM and the TGI (SNB-75 CNS) was 2440 nM. For the same molecule, the GI50 (SN12C renal) was 1760 nM, the TGI (SN12C renal) was 3290 nM and the GI50 (SK-MEL-28 melanoma) was 1220 nM. For the same molecule, the TGI (SK-MEL-28 melanoma) was 2470 nM, the GI50 (T-47D breast) was 1470 nM and 1570 nM and the TGI (T-47D breast) was 3270 nM and 3170 nM. For the same molecule, the GI50 (U251 CNS) was 1390 nM, the TGI (U251 CNS) was 2720 nM and the GI50 (SK-MEL-2 melanoma) was 1470 nM. It also gave a TGI (SK-MEL-2 melanoma) of 3060 nM, a GI50 (HOP-62 NSCLC) of 1400 nM and a TGI (HOP-62 NSCLC) of 2750 nM. The GI50 (IGROV1 ovarian) was 1560 nM and 1120 nM, the TGI (IGROV1 ovarian) was 3370 nM and 2360 nM and the GI50 (LOX IMVI melanoma) was 1360 nM. It also gave a TGI (LOX IMVI melanoma) of 2710 nM, a GI50 (SF-539 CNS) of 1620 nM and a TGI (SF-539 CNS) of 2990 nM. The GI50 (OVCAR-4 ovarian) was 2140 nM and 1150 nM, the TGI (OVCAR-4 ovarian) was 7610 nM and 2460 nM and the GI50 (MCF7 breast) was 552 nM. The TGI (MCF7 breast) was 2040 nM, the GI50 (UO-31 renal) was 1290 nM and 1140 nM and the TGI (UO-31 renal) was 2630 nM and 2360 nM. For the same molecule, the GI50 (MOLT-4 leukemia) was 1550 nM, the TGI (MOLT-4 leukemia) was 3700 nM and the GI50 (DU-145 prostate) was 1410 nM and 1530 nM and 1290 nM. The TGI (DU-145 prostate) was 2790 nM and 2880 nM and 2550 nM, the GI50 (COLO 205 colon) was 312 nM and 332 nM and the TGI (COLO 205 colon) was 1390 nM and 1280 nM. The GI50 (NCI-H460 lung) was 1200 nM, the TGI (NCI-H460 lung) was 2830 nM and the GI50 (CCRF-CEM leukemia) was 1870 nM. The TGI (CCRF-CEM leukemia) was 4180 nM, the GI50 (BT-549 breast) was 4470 nM and the GI50 (HOP-92 NSCLC) was 346 nM. The TGI (HOP-92 NSCLC) was 1550 nM, the GI50 (ACHN renal) was 1590 nM and 1330 nM and the TGI (ACHN renal) was 2940 nM and 2610 nM. The GI50 (PC-3 prostate) was 1420 nM and 793 nM, the TGI (PC-3 prostate) was 2920 nM and 2070 nM and the GI50 (MDA-MB-231 breast) was 1370 nM. It also gave a TGI (MDA-MB-231 breast) of 2710 nM, a GI50 (EKVX NSCLC) of 1140 nM and a TGI (EKVX NSCLC) of 2710 nM. For the same molecule, the GI50 (KM12 colon) was 1490 nM and 911 nM, the TGI (KM12 colon) was 3110 nM and 2100 nM and the GI50 (NCI/ADR-RES ovarian) was 1520 nM. For the same molecule, the TGI (NCI/ADR-RES ovarian) was 3400 nM, the GI50 (A498 renal) was 1880 nM and the TGI (A498 renal) was 6830 nM. For the same molecule, the GI50 (MDA-MB-435) was 944 nM, the TGI (MDA-MB-435) was 2160 nM and the GI50 (RXF 393 renal) was 1270 nM. For the same molecule, the TGI (RXF 393 renal) was 2640 nM, the GI50 (SK-OV-3 ovarian) was 2020 nM and 1670 nM and the TGI (SK-OV-3 ovarian) was 4390 nM and 3030 nM. The GI50 (HCC-2998 colon) was 991 nM, the TGI (HCC-2998 colon) was 2210 nM and the GI50 (M14 melanoma) was 1370 nM. The TGI (M14 melanoma) was 2900 nM, the GI50 (OVCAR-5 ovarian) was 1140 nM and 714 nM and 644 nM and the TGI (OVCAR-5 ovarian) was 2380 nM and 2130 nM and 2150 nM. It also gave a GI50 (786-0 renal) of 1560 nM, a TGI (786-0 renal) of 3010 nM and a GI50 (SK-MEL-5 melanoma) of 1400 nM. The TGI (SK-MEL-5 melanoma) was 2730 nM, the GI50 (OVCAR-3 ovarian) was 1610 nM and 1370 nM and the TGI (OVCAR-3 ovarian) was 3010 nM and 2660 nM. The GI50 (HS 578T breast) was 1660 nM and 1940 nM and 1610 nM, the TGI (HS 578T breast) was 5250 nM and 5340 nM and 4480 nM and the GI50 (K-562 leukemia) was 1390 nM. The TGI (K-562 leukemia) was 3820 nM.
